Measured values published in patent US20090186110A1, “GUAVA EXTRACT” (priority 2005, published 2009).

Target: T1, DP-IV (Homo sapiens, UniProt P27487)
T1 construct: DP-IV also exists as a soluble circulating form in plasma; from tissue; host or cells: human plasma
Assay: DP-IV activity colorimetric assay (Gly-Pro-4-NA substrate, human plasma)
Assay type: biochemical
Experimental: DP-IV activity was measured by a colorimetric assay.
DP-IV activity is expressed as the linear change in optical density over 20 min (Δ Abs/min).

T1 sequence (P27487 39-766 limits assumed): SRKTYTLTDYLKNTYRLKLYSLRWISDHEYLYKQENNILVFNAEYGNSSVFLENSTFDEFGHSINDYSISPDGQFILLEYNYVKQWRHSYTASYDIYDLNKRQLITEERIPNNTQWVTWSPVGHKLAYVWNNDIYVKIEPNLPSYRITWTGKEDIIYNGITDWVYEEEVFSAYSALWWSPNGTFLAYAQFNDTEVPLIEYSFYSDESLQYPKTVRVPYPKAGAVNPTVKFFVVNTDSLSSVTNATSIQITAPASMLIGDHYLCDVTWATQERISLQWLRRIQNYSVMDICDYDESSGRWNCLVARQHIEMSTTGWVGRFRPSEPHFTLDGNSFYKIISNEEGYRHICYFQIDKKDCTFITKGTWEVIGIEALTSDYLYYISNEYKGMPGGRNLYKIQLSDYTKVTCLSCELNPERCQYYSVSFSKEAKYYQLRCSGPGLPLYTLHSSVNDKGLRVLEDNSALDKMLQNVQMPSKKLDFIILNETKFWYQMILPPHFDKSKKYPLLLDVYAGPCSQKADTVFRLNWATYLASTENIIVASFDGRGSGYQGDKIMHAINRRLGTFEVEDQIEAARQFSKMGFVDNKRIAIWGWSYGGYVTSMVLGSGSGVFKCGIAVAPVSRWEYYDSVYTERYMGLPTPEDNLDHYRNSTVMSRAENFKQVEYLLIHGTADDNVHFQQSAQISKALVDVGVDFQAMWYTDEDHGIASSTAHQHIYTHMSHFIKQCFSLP

concentration that yielded a DP-IV inhibition of around 50% (guaijaverin in HEPES buffer, tested 70-280 μg/mL): 140-210 μg/mL test assay
Compound: O=c1c(O[C@@H]2OC[C@H](O)[C@H](O)[C@H]2O)c(-c2ccc(O)c(O)c2)oc2cc(O)cc(O)c12 [guaijaverin]
DP-IV inhibition (result in words): clear, dose dependent inhibition of DP-IV
